Molecular target: T1, AcrIF11Pae2 (Escherichia coli, UniProt A0AAB0B261)
T1 construct: pET28b in E. coli BL21(DE3); 13C/15N-labelled
Experiment: NMR chemical shift perturbation on NAD titration
Assay type: binding
Details: NMR structure 8DWQ is without NAD; structure sample 50 mM KPi pH 7.4, 298 K; titration conditions not stated

T1 sequence (A0AAB0B261 entry or part of it): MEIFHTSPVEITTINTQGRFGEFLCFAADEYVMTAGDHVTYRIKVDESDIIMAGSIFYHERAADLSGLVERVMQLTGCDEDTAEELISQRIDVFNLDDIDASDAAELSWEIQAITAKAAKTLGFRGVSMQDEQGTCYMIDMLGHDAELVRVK

NC(=O)c1ccc[n+]([C@@H]2O[C@H](COP(=O)(O)OP(=O)(O)OC[C@H]3O[C@@H](n4cnc5c(N)ncnc54)[C@H](O)[C@@H]3O)[C@@H](O)[C@H]2O)c1 [NAD]
NMR chemical shift perturbation on NAD titration: upon titration of cofactor NAD, the largest chemical shift perturbations occurred in the beta sheet region

— publication PMC12421852, “AcrIF11 is a potent CRISPR-specific ADP-ribosyltransferase encoded by phage and plasmid” (mBio, 2025)
